From patent US20260041683A1, “Compounds with Anti-Acinetobacter Baumannii Activity” (University of Kentucky Research Foundation, priority 2022, published 2026)
≈ marks a conversion by molar mass, not a printed value. Entries after “also recorded” stand apart in the source; their conditions may differ. Read-outs that look alike come from different tables or passages of the source.

How the values were obtained:
[1] = test system: K. pneumoniae ATCC 27736; test: MIC determination; assay type: cell-based; conditions: Klebsiella pneumoniae, ATCC27736; Table 5; Mueller-Hinton medium; F = K. pneumoniae ATCC 27736; read-out: MIC strain F
[2] = test system: S. aureus ATCC 25923; test: MIC determination; assay type: cell-based; conditions: Staphylococcus aureus, ATCC25923
[3] = test system: biofilm formed by Ab ATCC 19606; test: Biofilm prevention assay (crystal violet); conditions: compound added while biofilm is forming
[4] = test system: E. cloacae ATCC 13047; test: MIC determination; assay type: cell-based; conditions: Enterobacter cloacae, ATCC13047
[5] = test system: Y. pestis CO92; test: microbe, parasite or virus in culture; assay type: cell-based; conditions: Yersinia pestis, CO92, read-out: MIC Y. pestis CO92
[6] = test system: S. epidermidis ATCC 12228; test: MIC determination; assay type: cell-based; conditions: Staphylococcus epidermidis, ATCC12228
[7] = test system: P. aeruginosa ATCC 27853; test: MIC determination; assay type: cell-based; conditions: Pseudomonas aeruginosa, ATCC27853; Table 5; Mueller-Hinton medium; G = P. aeruginosa ATCC 27853; read-out: MIC strain G
[8] = test system: M. smegmatis; test: MIC determination; assay type: cell-based, Mycobacterium smegmatis; conditions: Mycolicibacterium smegmatis; Table 4
[9] = test system: E. coli MC1061; test: MIC determination; assay type: cell-based; conditions: Escherichia coli; Table 5; Mueller-Hinton medium; D = E. coli MC1061; read-out: MIC strain D
[10] = test system: Ab ATCC 19606; test: Time-kill curves; conditions: 1×MIC and 4×MIC, up to 24 h
[11] = test system: B. anthracis Sterne F32; test: microbe, parasite or virus in culture; assay type: cell-based; conditions: Bacillus anthracis
[12] = test system: preformed biofilm of Ab ATCC 19606; test: Biofilm disruption assay (crystal violet); conditions: compound added after formation of biofilm
[13] = test system: human embryonic kidney cells (HEK-293); test: Mammalian cytotoxicity assay (resazurin); conditions: HEK-293, 32 μg/mL (printed 32 g/mL for 3e), 24 h
[14] = test system: S. enterica ATCC 14028; test: MIC determination; assay type: cell-based; conditions: Salmonella enterica, ATCC14028
[15] = test system: Ab ATCC 19606; test: Development of resistance, 15-passage MIC assay; assay type: cell-based, Acinetobacter baumannii; conditions: 15 passages at ½×MIC

In the case of `O=C(NNc1ccc(Cl)cc1)c1ccc(F)cn1` [Compound 3e], the MIC [1] is reported as 64 µg/mL (≈ 241 µM), the MIC ([2]; Table 4, read-out: MIC S. Aureus ATCC 25923) is reported as > 16 µg/mL and the MIC ([2]; Table 5, Mueller-Hinton medium, B = S. aureus ATCC 25923, read-out: MIC strain B) is reported as > 64 µg/mL. The “effect on biofilm formation (prevention)” value [3] was “biofilm formation was abolished at concentrations above MIC; also recorded: inhibited biofilm formation”, the MIC ([4]; Table 4, read-out: MIC E. cloacae ATCC 13047) was 4 µg/mL (≈ 15.1 µM) and the MIC ([4]; Table 5, Mueller-Hinton medium, E = E. cloacae ATCC 13047, read-out: MIC strain E) was 16 µg/mL (≈ 60.2 µM). The MIC [5] was 8 µg/mL (≈ 30.1 µM), the MIC ([6]; Table 4, read-out: MIC S. epidermidis ATCC 12228) was > 16 µg/mL and the MIC ([6]; Table 5, Mueller-Hinton medium, C = S. epidermidis ATCC 12228, read-out: MIC strain C) was > 64 µg/mL. The MIC [7] was > 64 µg/mL, the MIC [8] was 4 µg/mL (≈ 15.1 µM) and the MIC [9] was 16 µg/mL (≈ 60.2 µM). The “bacteriostatic or bactericidal (time-kill)” value [10] was “bacteriostatic”, the MIC ([11]; STERNEF32, read-out: MIC B. anthracis Sterne F32) was > 16 µg/mL and the MIC ([11]; STERNEF32, read-out: MIC strain A) was > 64 µg/mL. For the same molecule, the “effect on preformed biofilm (disruption)” value [12] was “did not disrupt a preformed Ab biofilm; also recorded: did not disrupt the preformed biofilm”, the inhibition of growth [13] was 17% and the MIC ([14]; Table 4, read-out: MIC S. enterica ATCC 14028) was 8 µg/mL (≈ 30.1 µM). The MIC ([14]; Table 5, Mueller-Hinton medium, H = S. enterica ATCC 14028, read-out: MIC strain H) was 64 µg/mL (≈ 241 µM) and the “emergence of resistance (in words)” value [15] was “not observed even after 15 passages; also recorded: Lack of resistance”.
